In patent US20100256230A1, “1-BUTANE ACID DERIVATIVES, PHARMACEUTICAL COMPOSITIONS CONTAINING SAID DERIVATIVES AND THE USE THEREOF” (SCHEBO BIOTECH AG, priority 2001, published 2010):

What was measured:
[1] = system: glycolysis of Novikoff-Zellen hepatoma cells; test: Inhibition of glycolysis of Novikoff cells (lactate produced for glucose consumed); assay type: cell-based
Novikoff hepatoma cells = test: Proliferation inhibition of Novikoff hepatoma cells (cell count after four days of cultivation); assay type: cell-based; conditions: Novikoff hepatoma cells, 100,000 cells seeded per 25 cm2 bottle, counted after four days of cultivation, compared to control without compound; FIGS. 1 and 2
Method: The cell density was measured after four days of cultivation.
The cell density was measured after 4 days of cultivation.
The Novikoff hepatoma cells utilized in this example were obtained from the tumor bank of the Deutsches Krebsforschungszentrum, Heidelberg (Cancer Research 1951, 17, 1010). 100,000 cells each are seeded per 25 cm^2 cultivation bottle. The substance according to Example 1 of the invention, dissolved in a solvent suitable for use in cell cultures, for instance water, diluted ethanol, dimethylsulfoxide or the like, was added in an increasing concentration to the culture medium, e.g. L-cycloserine (compound 16) or dehydrothreonine (compound 2) in a concentration range of 80 μM-5,000 μM; carbomethoxypropionyl cyanide (compound 13) in a range of 100 μM-300 μM. After four days of cultivation, the number of cells per bottle was counted. The results are shown in FIGS. 1 and 2, and a dose dependence of the proliferation inhibition compared to the control sample without addition of a compound according to the invention can be seen.

For `COC(=O)CCC(=O)C#N` [carbomethoxypropionyl cyanide], the “inhibition of glycolysis flow, lactate produced for glucose consumed” value ([1]; FIG. 3) was “massively inhibits the glycolysis flow”, the “inhibition of glycolysis flow, lactate produced for glucose consumed” value ([1]; FIG. 3, listed as CMPC) was “inhibition of glycolysis” and the “inhibition of tumor cell growth (proliferation inhibition, cell density)” value (Novikoff hepatoma cells) was “dose-dependent inhibition of tumor cell growth”.

For `N[C@H]1CONC1=O` [L-glycoserine, L-cycloserine], the “inhibition of tumor cell growth (proliferation inhibition, cell density)” value (Novikoff hepatoma cells) was “dose-dependent inhibition of tumor cell growth”.
